Measured values taken from PMC4623676, “Methylation mediated by an anthocyanin, O-methyltransferase, is involved in purple flower coloration in Paeonia” (Journal of Experimental Botany, 2015).

Columns and labels:
[1] = tested on: T1, PtAOMT; experiment: HPLC of methylated product; format: biochemical, Paeonia tenuifolia; conditions: 200 μM SAM, 1.0 mM MgCl2, 14 mM β-mercaptoethanol, 100 mM Tris/HCl pH 7.5, 35 °C; MBP fusion
T1 construct: gene AOMT; dimer in solution; Arg-87; Gly-13, Thr-85, Thr-205
Text: HPLC of methylated product on PtAOMT | K m of PtAOMT-R87L for Cy3G was slightly lower than its K m for Cy3G5G

[2] = tested on: T2, PsAOMT; experiment: HPLC of methylated product; format: biochemical, Paeonia suffruticosa; conditions: 200 μM SAM, 1.0 mM MgCl2, 14 mM β-mercaptoethanol, 100 mM Tris/HCl pH 7.5, 35 °C; MBP fusion; read-out: PsAOMT / K m
T2 construct: gene AOMT; dimer in solution; Leu-87; differs from PtAOMT at positions 13 (E), 85 (A), 87 (L), 205 (R)
Text: HPLC of methylated product on PsAOMT

Row | Km [1] [µM] | Km [2] [µM] | Compound
1 | 8.51 ± 1.39 | 1.06 | OC[C@H]1O[C@@H](Oc2cc3c(O[C@@H]4O[C@H](CO)[C@@H](O)[C@H](O)[C@H]4O)cc(O)cc3[o+]c2-c2ccc(O)c(O)c2)[C@H](O)[C@@H](O)[C@@H]1O [Cy3G5G, Cyanidin 3,5-di-O-glucoside]
2 | 3.53 ± 0.31 | 1.76 | OC[C@H]1O[C@@H](Oc2cc3c(O)cc(O)cc3[o+]c2-c2ccc(O)c(O)c2)[C@H](O)[C@@H](O)[C@@H]1O [Cy3G, Cyanidin 3-O-glucoside]
3 | – | 4.11 | OC[C@H]1O[C@@H](Oc2cc3c(O)cc(O)cc3[o+]c2-c2cc(O)c(O)c(O)c2)[C@H](O)[C@@H](O)[C@@H]1O [Dp3G, Delphinidin 3-O-glucoside]
4 | – | 146 | O=c1cc(-c2ccc(O)c(O)c2)oc2cc(O[C@@H]3O[C@H](CO)[C@@H](O)[C@H](O)[C@H]3O)cc(O)c12 [Lu7G, Luteolin 7-O-glucoside]
5 | – | 12.3 | C[C@@H]1O[C@@H](OC[C@H]2O[C@@H](Oc3c(-c4ccc(O)c(O)c4)oc4cc(O)cc(O)c4c3=O)[C@H](O)[C@@H](O)[C@@H]2O)[C@H](O)[C@H](O)[C@H]1O [Qu3R, Quercetin 3-O-rutinoside]

Row | Compound | Km [1] [µM] | Km [2] [µM]
6 | O=c1c(O)c(-c2ccc(O)c(O)c2)oc2cc(O)cc(O)c12 [Quercetin] | – | 4.33
